pIC50: −log10 of the molar value.
Legend:
[1] = tested on: patients with Alzheimer's disease; details: cited from earlier work; for Effects on Cognitive Function: cognitive decline in Alzheimer's disease
aged ovariectomized rats = experiment: Radial arm maze test, Example 2 (chronic estrogen-deficient aged rats); format: in vivo
Description: Thirty-six retired breeder female rats (8-10 months old) were purchased from Harlan Sprague Dawley, Inc. The rats were housed in separate cages and were initially maintained on a 12:12 hour light/dark cycle with access to Chow diet and water ad libitum. All procedures done on the animals were approved by the Animal Care and Use Committee of Wake Forest University. After bilateral ovariectomy, the rats were fed with a casein/lactalbumin-based control diet for about 12 months (until about 2 years of age). The rats were then evaluated in a 8-arm radial arm maze to determine their baseline working memory. […] The rats were tested in the maze at 1 and 3 months after the initiation of the treatments.
After 3 months of treatment, each of the 3 groups were divided randomly into two subgroups. One subgroup was given Hup A orally (0.3 mg/Kg of body weight) in addition to their control regimen or treatment with SPEs or E2 and the other subgroup received no Hup A. After 3 weeks of Hup A supplementation, working memory was reevaluated.
A pellet of fudge brownie (Little Debbie, Mckee Foods, Collegedale, Tenn.) was placed in each of the 8 food wells located at the end of each arm to serve as a reward. The rats were allowed to explore the maze for 10 min or until all eight rewards were eaten. The training session was terminated when the rats were able to eat all 8 rewards within 10 min.
After the training, the rats were tested once per day 4 consecutive days per week for two weeks. One day prior to the test, and during the first three test days, the food intake was reduced to 25% of the normal 40 g/day food intake. A visit to an arm was recorded if the rat reached three-fourths of the length of the arm. The maze performance was recorded as the number of correct choices in the first 8 visits. A mistake was counted if a rat reentered an arm from which the rat has already eaten the bait. A test session of a rat was terminated when the rat ate all eight rewards or 10 min had elapsed. […]

[2] = in vivo; cited from earlier work
liver = details: in vivo; cited from earlier work
patients = details: Tacrine 100 mg/day; cited from earlier work
BuChE (blood) = details: read-out: IC50 BuChE, in vitro; cited from earlier work
[3] = tested on: ovariectomized retired breeder female rats; experiment: Radial arm maze test, Example 1 (10 months of treatment); format: in vivo; details: oral in diet, given alone
Description: Eight-four retired breeder females (Sprague-Dawley), weighing 300-360 g (8-10 months old), were purchased from Harlan Sprague Dawley, Inc. The rats were housed in separate cages and were initially maintained on a 12:12 hour light/dark cycle with access to Chow diet and water ad libitum. All procedures done on the animals were approved by the Animal Care and Use Committee of Wake Forest University. Upon arrival, the rats were weighed, and then randomized into the 12 treatment groups using a stratified randomization scheme, stratifying by body weight.
Shown in Table 5 below is the 3×4 factorial study design and includes the number of rats that finished the maze tests. […]
After the training, the rats were tested twice per day (in the morning and afternoon) 4 consecutive days per week for two weeks. […] A visit to an arm was recorded if the rat reached three-fourths of the length of the arm. The maze performance was recorded as the number of correct choices in the first 8 visits. A mistake was counted if a rat reentered an arm from which the rat has already eaten the bait. […]
All data were analyzed using BMDP Statistical Software, version 7.0 (Los Angeles, Calif.). Uterine weights expressed as a percentage of body weight and body weight violated the assumption of equal variances, and were not normally distributed. […] Body weight, uterine weight, and maze data were analyzed by 2-way ANOVA. […]

For Nc1ccncc1 [4-aminopyridine], the “Effects on Cognitive Function” value [1] is listed as “Unchanged/Slight Improvement”.

For COC(=O)C1=CCCN(C)C1 [Arecoline], the “Effects on Cognitive Function” value [1] is listed as “Unchanged/Slight Improvement”.

In the case of CC(C[N+](C)(C)C)OC(N)=O (centres unmarked) [Bethanecol], the “Effects on Cognitive Function” value [1] is given as “Unchanged/Slight Improvement”.

In the case of C/C=C1\[C@H]2C=C(C)C[C@]1(N)c1ccc(=O)[nH]c1C2 [Huperzine A, (5R, 9R, 11E)-5-amino-11-ethylidene-5,6,9,10-tetrahydro-7-methyl-5,9-methanocycloocta(b)pyridin2(1H)-one], the “Effects on Cognitive Function” value [1] is given as “Significant Improvement”, the “cognitive function (proportion of animals with improved working memory)” value (aged ovariectomized rats; Hup A 0.3 mg/Kg orally for 3 weeks added to E2 treatment) is given as “slightly improved” and the “cognitive function (proportion of animals with improved working memory)” value (aged ovariectomized rats; Hup A 0.3 mg/Kg orally for 3 weeks added to SPE treatment) is given as “considerably improved”.

For CN1CCCC1c1cccnc1 (centres unmarked) [Nicotine], the “Effects on Cognitive Function” value [1] is listed as “Slight Improvement”.

For O=C1CCCN1CC#CCN1CCCC1 [Oxotremorine], the “Effects on Cognitive Function” value [1] is given as “Unchanged”.

For CNC(=O)Oc1ccc2c(c1)[C@]1(C)CCN(C)[C@@H]1N2C [Physostigmine], the half-life [2] is given as “short half-life”.

For CC[C@@H]1C(=O)OC[C@@H]1Cc1cncn1C [Pilocarpine], the “Effects on Cognitive Function” value [1] is given as “Unchanged”.

For Nc1c2c(nc3ccccc13)CCCC2 [Tacrine], the “Effects on Cognitive Function” value [1] is given as “Unchanged to Significant Improvement”, the “improving symptoms of Alzheimer's disease” value ([1]; in vivo) is given as “mildly effective” and the liver toxicity (liver) is given as “toxic to the liver”. The “Abdominal Cramps” value (patients) was 38 Per Cent of Patients, the Diarrhea (patients) was 23 Per Cent of Patients and the Dizziness (patients) was 12 Per Cent of Patients. The “Excessive Sweating” value (patients) was 4 Per Cent of Patients, the Nausea (patients) was 25 Per Cent of Patients and the Polyuria (patients) was 25 Per Cent of Patients. The Ptyalsim (patients) was 10 Per Cent of Patients, the Vomitin (patients) was 15 Per Cent of Patients and the pIC50 (BuChE (blood)) was […].

With CC12CCC3c4ccc(O)cc4CCC3C1CCC2O (stereo not drawn) [estradiol, 17-β estradiol] the “performance of the radial arm maze tests” value [3] was “dosedependent improvement” and the “maze performance (working memory) versus Ctl group” value (aged ovariectomized rats; at both 1 and 3 months of treatment, after 12 months of estrogen-deficiency) was “significantly better”.

In the case of Lecithin, the “Effects on Cognitive Function” value [1] is listed as “Unchanged/Slight Improvement”.

For Phosphatidylserine, the “Effects on Cognitive Function” value [1] is given as “Slight Improvement”.
